Measured values as given in US20150343016A1, “CHEMICAL ENTITIES AND THERAPEUTIC USES THEREOF” (The Regents of the University of Colorado, a body corporate, priority 2010, published 2015).

System: HN31 Head and Neck Cancer cell line
Experiment: MTT assay, Bouvardin with ionizing radiation, HN31 (treated on the same day)
Type: cell-based, human
Conditions: HN31 cells
Experimental: “Combination Index” computation. Combination Indices were calculated using CalcuSyn software (Biosoft), which uses the method of Chou and Talalay. This method first computes drug-induced effect using the Hill Equation: where E is the measured effect; C is the drug concentration; Emax is the full range of drug effect, usually at or near 100%; IC50 is the drug concentration producing the median effect of 50%; and n is the curve shape parameter describing the steepness of the concentration-effect relationship. The Chou and Talalay method then linearizes the Hill Equation by logarithmic transformation as: where fu is the fraction of cells left unaffected after drug exposure, fa is the fraction of cells affected by the exposure, C is the drug concentration used, Cm is the concentration to achieve the median effect, and n is the curve shape parameter. Cm and n are equivalent to IC50 and n, respectively, in the Hill Equation. The values of n (obtained from the slope), nlog(Cm) (obtained from the absolute value of the intercept), and, therefore, Cm are obtained by plotting log(fu−1−1) versus log(C). These numbers are then used to compute the Combination Index (CI) according to the formula: CI=(D)1/(Dx)1+(D)2/(Dx)2 (26). (Dx)1 and (Dx)2 are the doses required to achieve a given effect level for each treatment, i.e. a specified value of Fraction Affected or Fa. (D)1 and (D)2 are the doses of each treatment in a given combination which gives the same Fa.
The growth inhibitory effects of Bouvardin with ionizing radiation (IR) were evaluated using a modified tetrazolium salt (MTT) assay. In the MTT assay, 1,000 to 2,000 viable cells were plated in 100 uL of growth medium in 96-well plates (Corning, Ithaca, N.Y.). Following an overnight incubation, drug was added in varying concentrations and the plates were irradiated on the same day (co-treatment) or 24 hr later (pre-treatment) and incubated for 6 to 7 days. The tetrazolium salt was added at a concentration of 0.4 mg/mL to each well following the 6- to 7-day treatment. The plates were incubated with the salt for 4 hours at 37° C. At 4 hours, the medium was aspirated off, leaving the dark blue formazan product at the bottom of the wells. The reduced MTT product was solubilized by adding […] of 0.2 N HCl in 75% isopropanol, 23% MilliQ water to each well. Thorough mixing was done using a Titertek multichannel pipetman. The absorbency of each well was measured using an automated plate reader (Molecular Devices, Sunnyvale, Calif.). All experiments were done in triplicate.
MTT assays were used to determine the effect of Bouvardin (concentrations in uM) in combination with ionizing radiation (in Gy, X-axis). FIG. 14 depicts CI values for Bouvardin and radiation on 3 cell lines. Combination Index data from 3 different Head and Neck Cancer cell lines are shown. Black dashed lines represent a CI value of 1. CI values below 1 indicate synergy. 1586 and UM-SCC19 were pre-treated whereas HN31 was treated on the same day.

## COc1ccc(C[C@H]2C(=O)N[C@H](C)C(=O)N(C)[C@@H]3C(=O)N(C)[C@@H](Cc4ccc(O)c(c4)Oc4ccc(cc4)[C@H]3O)C(=O)N[C@@H](C)C(=O)N[C@H](C)C(=O)N2C)cc1 (stereo in doubt) [Bouvardin, bouvardin]
Bouvardin 0.001 uM + 1 Gy IR
  Combination Index: 4.673
  Fraction Affected: 0.165
Bouvardin 0.001 uM + 2 Gy IR
  Combination Index: 1.605
  Fraction Affected: 0.292
Bouvardin 0.001 uM + 4 Gy IR
  Combination Index: 0.989
  Fraction Affected: 0.478
Bouvardin 0.003 uM + 1 Gy IR
  Combination Index: 1.405
  Fraction Affected: 0.362
Bouvardin 0.003 uM + 2 Gy IR
  Combination Index: 0.877
  Fraction Affected: 0.463
Bouvardin 0.003 uM + 4 Gy IR
  Combination Index: 0.93
  Fraction Affected: 0.535
Bouvardin 0.006 uM + 1 Gy IR
  Combination Index: 0.462
  Fraction Affected: 0.574
Bouvardin 0.006 uM + 2 Gy IR
  Combination Index: 0.517
  Fraction Affected: 0.602
Bouvardin 0.006 uM + 4 Gy IR
  Combination Index: 1.005
  Fraction Affected: 0.559
Bouvardin 0.01 uM + 1 Gy IR
  Combination Index: 0.401
  Fraction Affected: 0.731
Bouvardin 0.01 uM + 2 Gy IR
  Combination Index: 0.419
  Fraction Affected: 0.747
Bouvardin 0.01 uM + 4 Gy IR
  Combination Index: 0.657
  Fraction Affected: 0.73
Bouvardin 0.03 uM + 1 Gy IR
  Combination Index: 0.565
  Fraction Affected: 0.753
Bouvardin 0.03 uM + 2 Gy IR
  Combination Index: 0.471
  Fraction Affected: 0.782
Bouvardin 0.03 uM + 4 Gy IR
  Combination Index: 1.099
  Fraction Affected: 0.717
Bouvardin 0.06 uM + 1 Gy IR
  Combination Index: 0.663
  Fraction Affected: 0.778
Bouvardin 0.06 uM + 2 Gy IR
  Combination Index: 0.673
  Fraction Affected: 0.785
Bouvardin 0.06 uM + 4 Gy IR
  Combination Index: 1.086
  Fraction Affected: 0.756
Bouvardin 0.1 uM + 1 Gy IR
  Combination Index: 0.97
  Fraction Affected: 0.825
Bouvardin 0.1 uM + 2 Gy IR
  Combination Index: 1.673
  Fraction Affected: 0.789
Bouvardin 0.1 uM + 4 Gy IR
  Combination Index: 1.914
  Fraction Affected: 0.784
Bouvardin 0.3 uM + 1 Gy IR
  Combination Index: 1.563
  Fraction Affected: 0.837
Bouvardin 0.3 uM + 2 Gy IR
  Combination Index: 1.911
  Fraction Affected: 0.826
Bouvardin 0.3 uM + 4 Gy IR
  Combination Index: 2.897
  Fraction Affected: 0.8
Bouvardin 0.6 uM + 1 Gy IR
  Combination Index: 2.067
  Fraction Affected: 0.85
Bouvardin 0.6 uM + 2 Gy IR
  Combination Index: 2.148
  Fraction Affected: 0.849
Bouvardin 0.6 uM + 4 Gy IR
  Combination Index: 4.862
  Fraction Affected: 0.797
Bouvardin 1 uM + 1 Gy IR
  Combination Index: 4.673
  Fraction Affected: 0.165
Bouvardin 1 uM + 2 Gy IR
  Combination Index: 1.605
  Fraction Affected: 0.292
Bouvardin 1 uM + 4 Gy IR
  Combination Index: 0.989
  Fraction Affected: 0.478
